Experimental findings from US7217710B2, “Substituted pyrazolopyrimidines” (SmithKline Beecham Corporation, priority 2001, dated 2007) are described below.

The target of experiment [1] is T1, GST-TIE2 (intracellular domains of human TIE2) (Homo sapiens, UniProt Q02763).
T1 construct: made in house
Kind of experiment: TIE-2 Enzyme Assay (TIE2-E2), LANCE method. In kind it is biochemical. Particulars: for pIC50: read-out: TIE2 PIC50 TIE2-E2 assay. The essentials: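 GST-tagged human TIE2 intracellular domain (aa 762–1104), preactivated 2 h with 80 μM ATP, then 5 nM enzyme run 2 h at room temperature with 1 μM biotinylated D1–15 peptide, 80 μM ATP, HEPES pH 7.4, 2.4% DMSO. Phosphotyrosine detected by LANCE (Eu anti-pTyr/streptavidin-APC) after EDTA stop; IC50 by nonlinear regression, reported as pIC50.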
For orientation: TR-FRET usually uses a lanthanide donor and a delayed reading to cut background.

A further experiment addresses T2, GST-VEGFR2 (Homo sapiens, UniProt P35968).
T2 construct: GST-VEGFR2, baculovirus expressed recombinant constructs of the intracellular domains; made in house
Kind of experiment: VEGF-R2 Enzyme Assay (VEGF-E2), LANCE method. In kind it is biochemical. Particulars: for pIC50: read-out: VEGFR2 PIC50 VEGFR-E2 assay.

In experiment [2] the target is T3, catalytic domain of human VEGFR3 (Homo sapiens, UniProt P35916, H890Q).
T3 construct: made in house; host or cells: Sf9 insect cells (baculovirus, pFastBac1)
Description: VEGFR-3 Homogenous Time-Resolved Fluorescence Assay (VEGFR-3-HTRF). The following applies: for pIC50: read-out: VEGFR3 PIC50 VEGFR-3-HTRF assay. In kind it is biochemical. The text has this: VEGFR—3-Homogenous Time-Resolved Fluorescence Assay (VEGFR-3-HTRF)
This assay assesses Vascular Endothelial Growth Factor 3 (VEGFR3) tyrosine kinase inhibitory activity in substrate phosphorylation assays. The assay examines the ability of small molecule organic compounds to inhibit the tyrosine phosphorylation of a peptide substrate.
The substrate phosphorylation assays use the VEGFR3 catalytic domain, which is expressed in Sf. 9 insect cells as an amino-terminal GST-tagged fusion protein. The catalytic domain of human VEGFR3 (AA residues #819–1298 based upon GenBank Accession #XM003852) is cloned by PCR from human Placenta Marathon Ready cDNA (Clontech). The PCR product is subcloned into pFastBac1 vector containing an N-terminal GST tag. The resulting pFB/GST/VEGFR3icd vector is used to generate a recombinant baculovirus for protein expression. The VEGFR3 catalytic domain translated sequence is:
Autophosphorylation allows enzymes to be fully activated prior to addition to peptide substrates. The assays are performed using enzyme that has been activated by autophosphorylation via preincubation in buffer with ATP and magnesium. Activated enzyme is then diluted and added to titrated compound and the substrate mix.
200 nM VEGFR3 enzyme is activated for 45 minutes at room temperature by incubating the enzyme in buffer containing 100 mM HEPES (pH7.2), 75 μM ATP, 0.3 mM DTT, 0.1 mg/mL BSA, and 10 mM MgCl2. After activation, VEGFR3 is diluted 100-fold into 2× dilution buffer: 200 mM HEPES (pH 7.5), 0.2 mg/mL BSA, 0.6 mM DTT. 20 μL of the diluted enzyme mix is added to 20 μL of 2× substrate mix (150 μM ATP, 20 mM MgCl2, 0.72 μM biotinylated peptide) in the assay plates. Final assay conditions are: 100 mM HEPES (pH 7.2), 75 μM ATP, 10 mM MgCl2, 0.1 mg/mL BSA, 0.3 mM DTT, 0.36 μM biotinylated peptide, and 1 nM VEGFR3 enzyme. Assay plates are incubated for 1.5 hours at room temperature before the addition of 30 μL 100 mM EDTA to the wells to stop the enzymatic reaction. 40 μL/well of HTRF mix are then added to the assay plates for the detection of phosphorylated substrate. Final assay concentrations are: 100 mM HEPES (pH7.2), 0.1 mg/mL BSA, 15 nM streptavidin-labeled allophycocyanin (PerkinElmer), and 1 nM europium-labeled anti-phosphotyrosine antibody (PerkinElmer). Assay plates are left unsealed and are counted in a Wallac Multilabel Counter 1420 (PerkinElmer).
The data for dose responses are plotted as % Control calculated with the data reduction formula 100*(U1–C2)/(C1–C2) versus concentration of compound where U is the unknown value, C1 is the average control value obtained for DMSO , and C2 is the average control value obtained for 0.1M EDTA. Data are fitted to the curve described by: y=((Vmax*x)/(K+x)) where Vmax is the upper asymptote and K is the IC50.

Experiment [3] concerns the target T4, TIE2 intracellular domain/c-fms extracellular domain (TIE2/c-fms) chimeric protein (Homo sapiens, UniProt Q02763).
T4 construct: fused on or other part: c-fms (CSF1R) extracellular domain in place of TIE2's own ectodomain; it serves as the capture handle for the anti-c-fms ELISA; P07333 (Macrophage colony-stimulating factor 1 receptor)
Description: TIE-2 Autophosphorylation Assay (TIE2-C). Type of experiment: cell-based. The following applies: TIE2/c-fms expressing mouse 3T3 cells. As for the experimental part: TIE-2 Autophosphorylation Assay (TIE2-C)
The TIE-2 autophosphorylation assay uses an ELISA method and a TIE2 intracellular domain/c-fms extracellular domain (TIE2/c-fms) chimeric protein expressing mouse 3T3 cell line. This assay measures the autophosphorylation level of TIE2 protein expressed in cells. The cells are cultured in 96 well plates and grown in high glucose DMEM containing 10% serum at 37° C. in a humidified 10% CO2, 90% air incubator. On the day of the assay, the serum containing medium is removed from the cells and replaced with serum free medium for one hour. The test compound (diluted from a 10 mM stock in DMSO, final DMSO concentration is 0.1%) is incubated with TIE2/c-fms expressing cells for 30 minutes in serum free DMEM. Intrinsic cellular dephosphorylation of the receptor is blocked by the addition of the tyrosine phosphatase inhibitor, sodium orthovanadate, from a 100 mM aqueous stock to a final concentration of 1 mM. The culture media is removed by aspiration and the cells incubated for 30 to 60 mins on ice with lysis buffer containing 137 mM NaCl, 2 mM EDTA, 10% glycerol, 1 mM sodium ortho vanadate, 1×tyrosine phosphatase inhibitor cocktail (Sigma) and complete protease inhibitor cocktail (Roche) in 20 mM Tris-HCl (pH8.0). The cell extracts are transferred into Rat anti-c-fms antibody (Zymed-clone 12-2d6) ([…]) coated 96 well plates and incubated for 12 hrs at 4 degrees. The extracts are removed by aspiration and the plate, washed in a buffer comprising PBS, 0.05% Tween-20, 0.05% NP-40 and 5% SuperBlock (Pierce) followed by incubation with an HRP (horseradish peroxidase) conjugated anti-phosphotyrosine antibody, (Upstate Biotech) The plates are again washed with the aforementioned wash buffer and the colorimetric HRP substrate, TMB is added. The reaction progresses for 90 seconds and is stopped with the addition of 2M H2SO4. The optical density at 450 nm derived from HRP catalyzed TMB is measured with a plate reader capable of reading at the appropriate wavelength (e.g. SpectroMax from Molecular Dynamics). The percent inhibition of activity is calculated relative to non-vanadate treated control wells. The concentration of test compound that inhibits 50% of activity (IC50) is interpolated using nonlinear regression (Levernberg-Marquardt) and the equation, y=Vmax (1−x/(K+x))+Y2, where “K” is equal to the IC50.

pIC50: −log10 of the molar value. Some results are limits rather than exact numbers.

T2 sequence (P35968 786-1356 limits assumed): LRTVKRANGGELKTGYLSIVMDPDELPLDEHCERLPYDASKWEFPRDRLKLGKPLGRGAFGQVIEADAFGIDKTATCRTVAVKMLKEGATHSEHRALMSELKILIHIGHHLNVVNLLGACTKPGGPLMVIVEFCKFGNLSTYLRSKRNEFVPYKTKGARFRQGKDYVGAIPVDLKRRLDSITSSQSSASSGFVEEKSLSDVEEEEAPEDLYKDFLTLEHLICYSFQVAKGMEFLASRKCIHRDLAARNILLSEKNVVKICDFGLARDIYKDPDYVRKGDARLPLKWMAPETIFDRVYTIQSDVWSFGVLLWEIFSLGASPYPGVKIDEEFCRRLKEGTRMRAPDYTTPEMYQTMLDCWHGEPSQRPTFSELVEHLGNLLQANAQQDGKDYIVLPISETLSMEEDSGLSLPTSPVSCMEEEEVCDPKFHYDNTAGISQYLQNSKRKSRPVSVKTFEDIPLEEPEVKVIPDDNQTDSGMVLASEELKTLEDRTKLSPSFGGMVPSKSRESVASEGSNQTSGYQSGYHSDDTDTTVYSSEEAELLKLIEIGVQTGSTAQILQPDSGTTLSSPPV
T4 sequence (Q02763 whole entry, change not shown, the tested form may be a part): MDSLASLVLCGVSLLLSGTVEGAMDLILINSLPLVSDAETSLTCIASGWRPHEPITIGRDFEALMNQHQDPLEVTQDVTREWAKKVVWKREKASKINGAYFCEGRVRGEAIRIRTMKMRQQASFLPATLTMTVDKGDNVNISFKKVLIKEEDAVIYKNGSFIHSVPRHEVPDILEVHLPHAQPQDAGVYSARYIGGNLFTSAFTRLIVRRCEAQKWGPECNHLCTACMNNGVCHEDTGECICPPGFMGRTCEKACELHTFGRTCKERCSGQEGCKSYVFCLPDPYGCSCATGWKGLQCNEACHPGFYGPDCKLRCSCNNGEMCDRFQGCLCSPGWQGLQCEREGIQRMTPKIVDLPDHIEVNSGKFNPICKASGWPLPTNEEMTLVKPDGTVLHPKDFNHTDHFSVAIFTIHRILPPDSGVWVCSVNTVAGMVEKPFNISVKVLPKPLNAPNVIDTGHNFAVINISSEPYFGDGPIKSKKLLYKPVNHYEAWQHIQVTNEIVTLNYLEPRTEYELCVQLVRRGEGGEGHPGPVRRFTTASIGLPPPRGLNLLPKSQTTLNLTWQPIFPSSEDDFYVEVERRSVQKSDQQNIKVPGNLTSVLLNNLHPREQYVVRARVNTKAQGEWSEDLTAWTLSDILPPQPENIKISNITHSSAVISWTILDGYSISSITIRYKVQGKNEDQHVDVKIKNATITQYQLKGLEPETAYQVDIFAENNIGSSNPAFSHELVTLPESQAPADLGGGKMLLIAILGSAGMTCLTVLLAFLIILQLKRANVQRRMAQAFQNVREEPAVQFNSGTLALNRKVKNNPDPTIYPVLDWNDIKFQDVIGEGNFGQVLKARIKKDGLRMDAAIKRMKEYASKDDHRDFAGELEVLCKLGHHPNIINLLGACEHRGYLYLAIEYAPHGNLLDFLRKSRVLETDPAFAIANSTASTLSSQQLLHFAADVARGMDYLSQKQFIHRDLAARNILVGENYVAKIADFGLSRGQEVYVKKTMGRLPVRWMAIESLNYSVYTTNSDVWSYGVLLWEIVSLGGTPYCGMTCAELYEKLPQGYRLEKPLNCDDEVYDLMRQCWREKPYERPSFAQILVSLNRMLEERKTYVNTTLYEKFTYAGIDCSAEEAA
T3 sequence (P35916 with tags, fused parts or gaps isoform P35916-1 H890Q): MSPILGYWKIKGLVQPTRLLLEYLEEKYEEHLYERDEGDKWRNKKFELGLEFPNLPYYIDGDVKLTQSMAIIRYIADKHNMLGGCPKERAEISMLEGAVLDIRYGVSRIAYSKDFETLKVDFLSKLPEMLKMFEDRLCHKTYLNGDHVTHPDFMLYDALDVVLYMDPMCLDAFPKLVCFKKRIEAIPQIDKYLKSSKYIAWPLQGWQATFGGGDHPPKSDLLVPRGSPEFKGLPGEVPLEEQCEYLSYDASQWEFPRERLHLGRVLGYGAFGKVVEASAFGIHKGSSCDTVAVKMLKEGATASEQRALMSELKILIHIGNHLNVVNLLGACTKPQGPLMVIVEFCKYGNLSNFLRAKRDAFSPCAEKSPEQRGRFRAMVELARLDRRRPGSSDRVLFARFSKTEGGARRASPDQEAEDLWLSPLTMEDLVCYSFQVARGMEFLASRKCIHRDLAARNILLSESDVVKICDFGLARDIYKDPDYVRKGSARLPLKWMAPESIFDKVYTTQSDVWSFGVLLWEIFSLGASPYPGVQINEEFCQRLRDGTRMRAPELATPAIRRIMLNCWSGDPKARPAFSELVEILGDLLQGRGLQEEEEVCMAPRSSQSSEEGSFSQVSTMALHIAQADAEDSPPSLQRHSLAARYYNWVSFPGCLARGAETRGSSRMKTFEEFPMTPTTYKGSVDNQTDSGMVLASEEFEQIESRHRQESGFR
T1 sequence (Q02763 762-1104): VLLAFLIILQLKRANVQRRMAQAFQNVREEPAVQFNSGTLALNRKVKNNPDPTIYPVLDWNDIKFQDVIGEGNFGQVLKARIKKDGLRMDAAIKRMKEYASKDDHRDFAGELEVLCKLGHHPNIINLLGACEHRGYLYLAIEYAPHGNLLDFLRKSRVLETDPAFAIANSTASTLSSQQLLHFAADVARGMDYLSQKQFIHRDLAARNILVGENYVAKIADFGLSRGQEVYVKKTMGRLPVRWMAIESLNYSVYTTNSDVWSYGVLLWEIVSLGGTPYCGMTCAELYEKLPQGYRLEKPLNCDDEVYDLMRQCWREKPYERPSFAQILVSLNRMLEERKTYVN

For “1-(5-tert-Butyl-isoxazol-3-yl)-3-{2-fluoro-4-[1-methyl-6-(3-(imidazol-1-yl propylamino)-1H-pyrazolo[3,4-d]pyrimidin-3-yl)-phenyl]} urea [Example 139]”, in experiment [1], the “TIE2 PIC50 TIE2-E2 assay” value is “++++ (++++ = PIC50 = greater than or equal to 7.40)”. Besides, the “VEGFR2 PIC50 VEGFR-E2 assay” value at GST-VEGFR2 was “+ (+ = PIC50 = 5.00 to less than 6.00)”. Also, the “VEGFR3 PIC50 VEGFR-3-HTRF assay” value in experiment [2] is recorded as “+ (+ = PIC50 = 5.00 to less than 6.00)”. Also, the pIC50 in experiment [3] was 6.52 to 7.00.
For `Cn1nc(-c2ccc(NC(=O)Nc3cc(C(C)(C)C)on3)c(F)c2)c2cnc(NCCN3CCOCC3)nc21` [Example 57, 1-(5-tert-Butyl-isoxazol-3-yl)-3-{2-fluoro-4-[1-methyl-6-(2-morpholin-4-yl-ethylamino)-1H-pyrazolo[3,4-d]pyrimidin-3-yl]-phenyl}-urea], the pIC50 is no less than 7.40 in experiment [1], 5.00 to 6.00 on GST-VEGFR2, 5.00 to 6.00 in experiment [2] and 6.52 to 7.00 in experiment [3].
On to `CN1CCN(CCCNc2ncc3c(-c4ccc(NC(=O)Nc5cc(C(F)(F)F)ccc5F)cc4)nn(C)c3n2)CC1` [Example 64], for which the pIC50 in experiment [1] was no less than 7.40; at GST-VEGFR2 it was less than 5.00; in experiment [2] it was less than 5.00; in experiment [3], no more than 6.52.
Turning to `CC(C)n1nc(-c2ccc(NC(=O)Nc3cc(C(F)(F)F)ccc3F)cc2)c2cnc(NCCN3CCOCC3)nc21` [Example 78], the “TIE2 PIC50 TIE2-E2 assay” value in experiment [1] is recorded as “+++ (+++ = PIC50 = 7.00 to less than 7.40)”. Besides, the “VEGFR2 PIC50 VEGFR-E2 assay” value at GST-VEGFR2 is given as “+ (+ = PIC50 = 5.00 to less than 6.00)”. Moreover, the “VEGFR3 PIC50 VEGFR-3-HTRF assay” value in experiment [2] was “+ (+ = PIC50 = 5.00 to less than 6.00)”. Besides, the pIC50 in experiment [3] is no more than 6.52.
`Cn1nc(-c2ccc(NC(=O)Nc3cc(C(F)(F)F)ccc3F)cc2)c2cnc(NCCCN3CCOCC3)nc21` [Example 84]: the pIC50 in experiment [1] was no less than 7.40; on GST-VEGFR2, 5.00 to 6.00; in experiment [2], less than 5.00; in experiment [3], no more than 6.52.
For `CC1CCCCN1CCCNc1ncc2c(-c3ccc(NC(=O)Nc4cc(C(F)(F)F)ccc4F)cc3)nn(C)c2n1` (centres unmarked) [Example 85], the values for the pIC50 in experiment [1], in experiment [2] and in experiment [3] were no less than 7.40, less than 5.00 and no more than 6.52, respectively.
For the molecule `CCN(CC)CCCNc1ncc2c(-c3ccc(NC(=O)Nc4cc(C(F)(F)F)ccc4F)cc3)nn(C)c2n1` [Example 88, 1-(2-Fluoro-5-trifluoromethyl-phenyl)-3-{4-[1-methyl-6-(3-diethylamino-propylamino)-1H-pyrazolo[3,4-d]pyrimidin-3-yl]-phenyl} urea], the pIC50 was no less than 7.40 in experiment [1] and no more than 6.52 in experiment [3].
In the same order, the values of `CN1CCCC1CCNc1ncc2c(-c3ccc(NC(=O)Nc4cc(C(F)(F)F)ccc4F)cc3)nn(C)c2n1` (centres unmarked) [Example 89, 1-(2-Fluoro-5-trifluoromethyl-phenyl)-3-{4-[1-methyl-6-[2-(1-methyl-pyrrolidin-2-yl)-ethylamino]-1H-pyrazolo[3,4-d]pyrimidin-3-yl]-phenyl} urea] are no less than 7.40 and no more than 6.52.
For `Cn1nc(-c2ccc(NC(=O)Nc3cc(C(F)(F)F)ccc3F)c(F)c2)c2cnc(NCCCn3ccnc3)nc21` [Example 132, 1-(2-Fluoro-5-trifluoromethyl-phenyl)-3-{2-fluoro-4-[1-methyl-6-(3-(imidazol-1-ylpropylamino)-1H-pyrazolo[3,4-d]pyrimidin-3-yl)-phenyl]} urea], the pIC50 in experiment [1] is no less than 7.40; on GST-VEGFR2, 5.00 to 6.00; in experiment [2] it was 5.00 to 6.00.
For the molecule `Cn1nc(-c2ccc(NC(=O)Nc3cc(C(C)(C)C)on3)c(F)c2)c2cnc(NCCCN3CCOCC3)nc21` [Example 134], the pIC50 in experiment [1] was no less than 7.40; on GST-VEGFR2, less than 5.00; in experiment [3], 6.52 to 7.00.
With `CC1CCCCN1CCCNc1ncc2c(-c3ccc(NC(=O)Nc4cc(C(C)(C)C)on4)c(F)c3)nn(C)c2n1` (centres unmarked) [Example 135], the pIC50 in experiment [1] is no less than 7.40; in experiment [3] it was no more than 6.52.
Take `CCN(CC)CCCNc1ncc2c(-c3ccc(NC(=O)Nc4cc(C(C)(C)C)on4)c(F)c3)nn(C)c2n1` [Example 136]: the pIC50 is no less than 7.40 in experiment [1] and no more than 6.52 in experiment [3].
`CN1CCCC1CCNc1ncc2c(-c3ccc(NC(=O)Nc4cc(C(C)(C)C)on4)c(F)c3)nn(C)c2n1` (centres unmarked) [Example 137]: the pIC50 was no less than 7.40 in experiment [1] and no more than 6.52 in experiment [3].
Regarding `CN1CCN(CCCNc2ncc3c(-c4ccc(NC(=O)Nc5cc(C(C)(C)C)on5)c(F)c4)nn(C)c3n2)CC1` [Example 138], the pIC50 in experiment [1] is no less than 7.40; in experiment [3], 6.52 to 7.00.
Regarding `Cn1nc(-c2ccc(NC(=O)Nc3cc(C(F)(F)F)ccc3F)cc2)c2cnc(NCc3ccncc3)nc21` [Example 143, 1-(2-Fluoro-5-trifluoromethyl-phenyl)-3-{4-[(1-methyl-6-(pyridin-4-ylmethyl)-amino)-1H-pyrazolo[3,4-d]pyrimidin-3-yl]-phenyl} urea], the pIC50 was 6.00 to 7.00 in experiment [1], 5.00 to 6.00 at GST-VEGFR2 and less than 5.00 in experiment [2].
With `Cn1nc(-c2ccc(NC(=O)Nc3cc(C(F)(F)F)ccc3F)cc2)c2cnc(NCCc3c[nH]cn3)nc21` [Example 145], the pIC50 is 7.00 to 7.40 in experiment [1], 5.00 to 6.00 in experiment [2] and no more than 6.52 in experiment [3].
Taken in the same sequence, the figures for `Cn1cncc1CCNc1ncc2c(-c3ccc(NC(=O)Nc4cc(C(F)(F)F)ccc4F)cc3)nn(C)c2n1` [Example 146, 1-(2-Fluoro-5-trifluoromethyl-phenyl)-3-{4-[(1-methyl-6-(2-[3-methyl-3H-imidazol-4-yl)-ethylamino)-1H-pyrazolo[3,4-d]pyrimidin-3-yl]-phenyl]} urea] were 7.00 to 7.40, 6.00 to 7.00 and no more than 6.52.
